Laboratory results taken from patent US8524766B2, “Modulators of dopamine neurotransmission” (NSAB, Filial af Neurosearch Sweden AB, Sverige, priority 2008, dated 2013).

Assays:
[1] = tested on: DOPAC (3,4-dihydroxyphenylacetic acid) in the rat striatum; test: Increase of DOPAC in the rat striatum after systemic administration (in vivo neurochemistry); conditions: estimated ED50 on increase of DOPAC in rat striatum, systemic administration (s.c.), curve fitting; for ED50: sc
Source text: After the behavioural activity sessions, the rats are decapitated and their brains rapidly taken out and put on an ice-cold petri-dish. The limbic forebrain, the striatum, the frontal cortex and the remaining hemispheral parts of each rat are dissected and frozen. Each brain part is subsequently analyzed with respect to its content of monoamines and their metabolites.
The monoamine transmitter substances (NA (noradrenaline), DA (dopamine), 5-HT (serotonin)) as well as their amine (NM (normethanephrine), 3-MT (3-methoxytyramine)) and acid (DOPAC (3,4-dihydroxyphenylacetic acid), 5-HIAA (5-hydroxyindoleacetic acid), HVA (homovanillic acid)) metabolites are quantified in brain tissue homogenates by HPLC separations and electrochemical detection.
The analytical method is based on two chromatographic separations dedicated for amines or acids. Two chromatographic systems share a common auto injector with a 10-port valve and two sample loops for simultaneous injection on the two systems. Both systems are equipped with a reverse phase column (Luna C18(2), dp 3 μm, 50*2 mm i.d., Phenomenex) and electrochemical detection is accomplished at two potentials on glassy carbon electrodes (MF-1000, Bioanalytical Systems, Inc.). The column effluent is passed via a T-connection to the detection cell or to a waste outlet. This is accomplished by two solenoid valves, which block either the waste or detector outlet. By preventing the chromatographic front from reaching the detector, better detection conditions are achieved. The aqueous mobile phase (0.4 ml/min) for the acid system contains citric acid 14 mM, sodium citrate 10 mM, MeOH 15% (v/v) and EDTA 0.1 mM. Detection potentials relative to Ag/AgCl reference are 0.45 and 0.60V. The aqueous ion pairing mobile phase (0.5 ml/min) for the amine system contains citric acid 5 mM, sodium citrate 10 mM, MeOH 9% (v/v), MeCN 10.5% v/v), decane sulfonic acid 0.45 mM, and EDTA 0.1 mM. Detection potentials relative to Ag/AgCl reference are 0.45 and 0.65V.
ED50 values for the increase of DOPAC in striatum are calculated by curve fitting.

[2] = tested on: drug-naive rats; test: Locomotor activity in drug-naive rats (in vivo behaviour); design: species or system rat; conditions: recorded for 60 minutes, ± SEM
Source text: Photobeam sensors are spaced 2.5 cm apart.

Row | Compound | ED50 DOPAC* [1] | Locomotor activity ([2]; 3.7 μmol/kg) | Locomotor activity ([2]; 11 μmol/kg) | Locomotor activity ([2]; 33 μmol/kg) | ED50 [1]
1 | CCCNCC1CCc2ccc(S(C)(=O)=O)cc2O1 (stereo not drawn) [Example 23, N-{[7-(METHYLSULFONYL)-3,4-DIHYDRO-2H-CHROMEN-2-YL]METHYL}-N—PROPAN-1-AMINE] | 14 µmol/kg | 9551 ± 1284 counts/60 min | 9722 ± 1247 counts/60 min | 7700 ± 1039 counts/60 min | 
2 | CCCN(CCC)CC1COc2ccc(S(C)(=O)=O)cc2O1 (stereo not drawn) [Example 16, N-{[7-(METHYLSULFONYL)-2,3-DIHYDRO-1,4-BENZODIOXIN-2-YL]METHYL}-N-PROPYLPROPAN-1-AMINE] |  | 13645 ± 3301 counts/60 min | 11807 ± 2628 counts/60 min | 18642 ± 2454 counts/60 min | 29 µmol/kg
3 | CS(=O)(=O)c1ccc2c(c1)O[C@@H](CN1CCCCC1)CO2 [Example 7, 1-{[(2S)-7-(METHYLSULFONYL)-2,3-DIHYDRO-1,4-BENZODIOXIN-2-YL]METHYL}PIPERIDINE] |  | 7905 ± 656 counts/60 min | 5469 ± 734 counts/60 min | 3334 ± 780 counts/60 min | 12 µmol/kg
